Measurements taken from ChEMBL document CHEMBL1201862, “PubChem BioAssay data set” (2004).
Activity calls are given as the source filed them.

Legend:
[1] = target: Voltage-dependent T-type calcium channel subunit alpha-1H (Homo sapiens, UniProt O95180); type: functional;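 note: channel activity triggered by adding a high calcium stimulation buffer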
[2] = target: Eukaryotic translation initiation factor 4E (Mus musculus, UniProt P63073); assay: blockers of eIF4G binding by eIF4E – biochemical, TR-FRET, dose response (AID 855); type: functional;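 note: potency for disrupting eIF4E binding to eIF4GI seen as loss of FRET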
Chain of Eukaryotic translation initiation factor 4E (P63073 whole entry): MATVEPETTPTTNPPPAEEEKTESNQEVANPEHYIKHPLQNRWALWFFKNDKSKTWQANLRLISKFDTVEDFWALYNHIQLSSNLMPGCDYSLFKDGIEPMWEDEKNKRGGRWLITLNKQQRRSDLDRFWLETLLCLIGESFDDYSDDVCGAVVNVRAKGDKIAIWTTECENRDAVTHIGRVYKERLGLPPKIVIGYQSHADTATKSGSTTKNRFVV

[3] = target: Glucose-6-phosphate 1-dehydrogenase (Homo sapiens, UniProt P11413); assay: inhibition of Homo sapiens G6PD, dose series – biochemical, fluorescence, selectivity assay for P. falciparum G6PD inhibitor project, dose response (AID 504792); type: functional
Chain of Glucose-6-phosphate 1-dehydrogenase (P11413 whole entry): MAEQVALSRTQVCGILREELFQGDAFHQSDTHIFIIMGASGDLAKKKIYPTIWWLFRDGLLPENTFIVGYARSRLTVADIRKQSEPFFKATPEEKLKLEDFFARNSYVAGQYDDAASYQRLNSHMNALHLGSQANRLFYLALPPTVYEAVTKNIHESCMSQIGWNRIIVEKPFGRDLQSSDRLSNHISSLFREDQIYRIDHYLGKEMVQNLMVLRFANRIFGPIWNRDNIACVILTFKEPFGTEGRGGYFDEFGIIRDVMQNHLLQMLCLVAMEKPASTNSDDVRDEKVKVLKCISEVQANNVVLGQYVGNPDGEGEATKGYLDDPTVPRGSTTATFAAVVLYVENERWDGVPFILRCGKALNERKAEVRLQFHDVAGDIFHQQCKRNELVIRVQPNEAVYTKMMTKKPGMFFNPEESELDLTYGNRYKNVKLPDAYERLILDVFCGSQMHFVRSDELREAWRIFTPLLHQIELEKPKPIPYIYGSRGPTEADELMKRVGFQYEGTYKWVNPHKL

[4] = target: T1, Polyadenylate-binding protein 1 (Homo sapiens, UniProt P11940); assay: MLLE binding blockers, Cy5 peptide tracer – biochemical, fluorescence polarization, Cy5-PAM2 peptide, secondary, miRNA deadenylation inhibitor project, dose response (AID 602260); type: functional; conditions: read-out: IC50_Mean
T1 sequence (P11940 whole entry): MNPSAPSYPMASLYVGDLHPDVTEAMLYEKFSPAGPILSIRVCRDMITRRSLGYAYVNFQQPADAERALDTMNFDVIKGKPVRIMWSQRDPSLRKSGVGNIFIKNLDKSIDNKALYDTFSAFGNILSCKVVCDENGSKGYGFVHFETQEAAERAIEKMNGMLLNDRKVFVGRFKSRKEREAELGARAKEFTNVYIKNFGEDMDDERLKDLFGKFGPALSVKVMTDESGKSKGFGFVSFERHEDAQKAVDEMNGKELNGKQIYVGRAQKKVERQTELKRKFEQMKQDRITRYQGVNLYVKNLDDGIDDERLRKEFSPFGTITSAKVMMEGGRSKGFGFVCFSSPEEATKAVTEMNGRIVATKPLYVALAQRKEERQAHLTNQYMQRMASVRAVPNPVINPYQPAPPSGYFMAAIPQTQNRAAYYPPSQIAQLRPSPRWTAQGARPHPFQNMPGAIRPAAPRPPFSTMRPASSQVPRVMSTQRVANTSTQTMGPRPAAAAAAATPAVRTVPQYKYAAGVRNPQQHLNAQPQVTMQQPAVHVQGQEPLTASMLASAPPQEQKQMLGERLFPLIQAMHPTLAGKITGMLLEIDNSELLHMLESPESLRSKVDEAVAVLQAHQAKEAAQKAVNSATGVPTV

[5] = Luminescence Cell-Based Dose Response HTS to Identify Activators of Luciferase Translation or Activity in H4 […] Cells. [Related pubchem assays: 1829 (Project Summary), 1814 (Primary HTS)]; type: functional
H4 = assay: Luminescence Cell-Based Dose Response HTS to Identify Activators of 5'UTR Stem-Loop Driven Prion Protein mRNA Translation in H4 Neuroglioblastoma Cells. [Related pubchem assays: 1829 (Project Summary), 1814 (Primary HTS)]; type: functional; conditions: Homo sapiens
[6] = target: T1, Polyadenylate-binding protein 1; assay: MLLE domain peptide-binding blockers, IC50 – biochemical, fluorescence polarization, FITC-PAM2 peptide, dose response (AID 602259); type: functional; conditions: read-out: IC50_Mean
[7] = Luminescence Cell-Based Dose Confirmation HTS to Identify Activators of 5'UTR Stem-Loop Driven Alpha-Synuclein mRNA Translation in H4 Neuroglioblastoma Cells. [Related pubchem assays: 1829 (Project Summary), 1814 (Primary HTS)]; type: functional
[8] = target: FAD-linked sulfhydryl oxidase ALR (Homo sapiens, UniProt P55789); assay: ALR-catalysed DTT oxidation blockers – biochemical, H2O2 detection, luminescence, cherry-pick, dose response (AID 493248)
Chain of FAD-linked sulfhydryl oxidase ALR (P55789 whole entry): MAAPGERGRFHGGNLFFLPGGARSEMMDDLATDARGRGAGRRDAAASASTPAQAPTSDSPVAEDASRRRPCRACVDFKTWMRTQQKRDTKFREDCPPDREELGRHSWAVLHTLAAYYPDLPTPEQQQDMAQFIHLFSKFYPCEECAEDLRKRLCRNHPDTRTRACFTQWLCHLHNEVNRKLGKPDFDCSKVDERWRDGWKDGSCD

P388/ADR = assay: cells; type: functional
SN12K1 = assay: cells; type: functional; conditions: Homo sapiens
Cytochrome P450 2D6 = Cytochrome P450 2D6 (Homo sapiens, UniProt P10635);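 note: CYP2D6 member of a cytochrome P450 panel assay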
Chain of Cytochrome P450 2D6 (P10635 whole entry): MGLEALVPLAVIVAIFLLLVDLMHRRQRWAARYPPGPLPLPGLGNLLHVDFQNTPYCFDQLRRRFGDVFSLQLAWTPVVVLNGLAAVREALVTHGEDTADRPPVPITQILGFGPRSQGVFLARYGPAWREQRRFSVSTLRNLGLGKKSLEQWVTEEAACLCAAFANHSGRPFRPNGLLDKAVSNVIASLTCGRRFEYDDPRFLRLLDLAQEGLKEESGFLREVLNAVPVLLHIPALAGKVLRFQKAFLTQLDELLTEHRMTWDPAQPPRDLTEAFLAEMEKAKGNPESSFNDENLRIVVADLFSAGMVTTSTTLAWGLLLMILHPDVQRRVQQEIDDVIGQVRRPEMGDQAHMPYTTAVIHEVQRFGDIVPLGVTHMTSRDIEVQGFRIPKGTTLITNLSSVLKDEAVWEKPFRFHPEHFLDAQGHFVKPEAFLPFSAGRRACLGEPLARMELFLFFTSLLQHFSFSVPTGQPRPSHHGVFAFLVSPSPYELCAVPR

[9] = target: Ras and Rab interactor 1/Tyrosine-protein kinase ABL1 (Homo sapiens, UniProt P00519+Q13671); type: functional;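 note: biochemical TR-FRET dose-response test measuring inhibition of binding between Rin1 and Abl proteins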
Chain of Ras and Rab interactor 1/Tyrosine-protein kinase ABL1 (P00519 whole entry): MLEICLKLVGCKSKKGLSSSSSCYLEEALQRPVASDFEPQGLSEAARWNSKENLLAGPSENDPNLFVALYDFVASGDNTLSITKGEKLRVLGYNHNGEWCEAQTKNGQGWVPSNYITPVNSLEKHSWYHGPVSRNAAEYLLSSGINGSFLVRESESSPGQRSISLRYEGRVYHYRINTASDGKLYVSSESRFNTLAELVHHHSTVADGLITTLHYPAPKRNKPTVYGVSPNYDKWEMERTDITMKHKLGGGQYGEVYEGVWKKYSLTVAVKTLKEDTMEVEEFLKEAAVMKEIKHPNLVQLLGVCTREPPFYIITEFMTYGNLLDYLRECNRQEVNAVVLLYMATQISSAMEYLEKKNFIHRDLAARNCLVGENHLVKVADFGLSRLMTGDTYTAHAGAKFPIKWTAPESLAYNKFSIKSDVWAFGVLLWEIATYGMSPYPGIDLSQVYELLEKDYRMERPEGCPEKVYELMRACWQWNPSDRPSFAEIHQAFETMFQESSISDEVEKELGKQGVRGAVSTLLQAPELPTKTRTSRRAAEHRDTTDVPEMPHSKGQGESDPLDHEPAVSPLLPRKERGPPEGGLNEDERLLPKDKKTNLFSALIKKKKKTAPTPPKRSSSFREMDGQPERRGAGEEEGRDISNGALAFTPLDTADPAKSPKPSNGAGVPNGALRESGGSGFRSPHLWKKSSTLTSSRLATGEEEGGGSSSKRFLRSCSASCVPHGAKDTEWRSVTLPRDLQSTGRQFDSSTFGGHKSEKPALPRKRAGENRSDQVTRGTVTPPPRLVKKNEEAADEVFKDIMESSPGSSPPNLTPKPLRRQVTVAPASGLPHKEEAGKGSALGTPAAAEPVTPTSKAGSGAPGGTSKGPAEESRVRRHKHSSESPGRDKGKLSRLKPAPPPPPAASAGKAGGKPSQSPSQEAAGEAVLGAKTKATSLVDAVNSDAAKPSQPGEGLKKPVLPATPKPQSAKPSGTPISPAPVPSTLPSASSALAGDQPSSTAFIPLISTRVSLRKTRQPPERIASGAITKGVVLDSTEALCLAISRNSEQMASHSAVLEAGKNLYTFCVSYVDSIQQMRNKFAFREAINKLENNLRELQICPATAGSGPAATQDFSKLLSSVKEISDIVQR
Chain of Ras and Rab interactor 1/Tyrosine-protein kinase ABL1 (Q13671 whole entry): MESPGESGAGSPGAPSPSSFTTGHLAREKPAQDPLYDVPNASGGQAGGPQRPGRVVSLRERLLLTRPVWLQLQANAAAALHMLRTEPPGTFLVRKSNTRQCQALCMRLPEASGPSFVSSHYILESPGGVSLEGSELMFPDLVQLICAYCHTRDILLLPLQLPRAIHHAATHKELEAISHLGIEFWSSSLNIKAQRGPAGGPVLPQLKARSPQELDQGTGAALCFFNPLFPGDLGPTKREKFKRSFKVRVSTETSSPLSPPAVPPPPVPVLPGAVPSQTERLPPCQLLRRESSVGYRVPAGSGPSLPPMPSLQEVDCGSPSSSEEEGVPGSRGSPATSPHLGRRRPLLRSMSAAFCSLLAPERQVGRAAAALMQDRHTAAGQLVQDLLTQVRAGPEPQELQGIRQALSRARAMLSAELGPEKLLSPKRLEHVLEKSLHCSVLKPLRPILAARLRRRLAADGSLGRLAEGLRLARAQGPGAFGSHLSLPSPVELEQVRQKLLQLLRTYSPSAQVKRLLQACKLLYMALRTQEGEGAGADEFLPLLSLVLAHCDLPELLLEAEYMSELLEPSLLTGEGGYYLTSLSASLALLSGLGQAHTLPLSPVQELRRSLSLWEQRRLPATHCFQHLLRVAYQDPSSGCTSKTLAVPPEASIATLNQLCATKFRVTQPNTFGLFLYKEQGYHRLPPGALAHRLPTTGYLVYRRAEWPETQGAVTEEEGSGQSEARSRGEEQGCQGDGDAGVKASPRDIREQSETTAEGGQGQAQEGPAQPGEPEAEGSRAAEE

HEK293 [10] = assay: EBV LMP1 TES2 canonical NF-kB signalling blockers – cell-based, HEK293, luciferase, cherry-pick, dose response (AID 588343); type: functional; conditions: Homo sapiens
[11] = target: T2, Corticotropin-releasing factor receptor 2/Corticotropin-releasing factor-binding protein (Homo sapiens, UniProt P24387+Q13324); assay: Dose Response confirmation of uHTS hits for small molecule antagonists of the CRF-binding protein and CRF-R2 receptor complex.; type: functional; conditions: read-out: IC50_Mean
T2 sequence (Q13324 whole entry): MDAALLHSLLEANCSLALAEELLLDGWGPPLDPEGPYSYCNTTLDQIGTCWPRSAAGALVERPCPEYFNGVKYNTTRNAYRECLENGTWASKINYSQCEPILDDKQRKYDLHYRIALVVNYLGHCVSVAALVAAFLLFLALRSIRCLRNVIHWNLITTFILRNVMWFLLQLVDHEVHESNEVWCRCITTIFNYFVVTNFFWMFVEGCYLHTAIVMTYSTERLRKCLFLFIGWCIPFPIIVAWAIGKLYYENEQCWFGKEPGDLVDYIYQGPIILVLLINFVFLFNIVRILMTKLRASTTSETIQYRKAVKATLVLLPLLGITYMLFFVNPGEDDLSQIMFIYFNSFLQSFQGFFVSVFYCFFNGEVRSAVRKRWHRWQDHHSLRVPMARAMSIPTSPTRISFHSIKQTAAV
T2 sequence (P24387 whole entry): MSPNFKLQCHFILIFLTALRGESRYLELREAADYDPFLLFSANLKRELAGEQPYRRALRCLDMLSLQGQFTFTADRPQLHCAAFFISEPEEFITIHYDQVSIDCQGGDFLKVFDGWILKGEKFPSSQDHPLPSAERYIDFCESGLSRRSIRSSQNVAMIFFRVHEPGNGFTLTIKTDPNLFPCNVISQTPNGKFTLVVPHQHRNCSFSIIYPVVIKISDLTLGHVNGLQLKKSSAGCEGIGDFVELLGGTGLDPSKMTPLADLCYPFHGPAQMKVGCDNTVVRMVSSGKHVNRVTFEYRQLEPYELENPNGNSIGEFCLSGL

[12] = target: T2, Corticotropin-releasing factor receptor 2/Corticotropin-releasing factor-binding protein; assay: activators of CRF receptor 2 with binding protein – uHTS hits, confirmation (AID 602473); type: functional; conditions: read-out: EC50_Mean
[13] = blockers of HIV-1 envelope-mediated cell-cell fusion – cherry-pick, dose response (AID 652057); type: functional, cell-based
[14] = HIV-1 AD8 envelope cell-cell fusion blockers – cherry-pick, dose response (AID 652062); type: functional, cell-based;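 note: luciferase signal from cell-cell fusion driven by HIV-1 clade B AD8 Env; potency is for inhibitors of fusion seen as a drop in luminescence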
[15] = OVCAR8 cell viability loss – plate reader, dry powder samples, PAX8 project, dose response (AID 743197); type: functional, cell-based; conditions: OVCAR-8
Paired box protein Pax-8 = Paired box protein Pax-8 (Homo sapiens, UniProt Q06710); assay: PAX8 transcriptional activity inhibition in RMG-I – RMG-I cells, luciferase, cherry-pick, dose response (AID 687027); type: functional, cell-based;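 note: luciferase reporter driven by Pax8 target thyroperoxidase promoter measured by SteadyGlo luminescence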
Chain of Paired box protein Pax-8 (Q06710 whole entry): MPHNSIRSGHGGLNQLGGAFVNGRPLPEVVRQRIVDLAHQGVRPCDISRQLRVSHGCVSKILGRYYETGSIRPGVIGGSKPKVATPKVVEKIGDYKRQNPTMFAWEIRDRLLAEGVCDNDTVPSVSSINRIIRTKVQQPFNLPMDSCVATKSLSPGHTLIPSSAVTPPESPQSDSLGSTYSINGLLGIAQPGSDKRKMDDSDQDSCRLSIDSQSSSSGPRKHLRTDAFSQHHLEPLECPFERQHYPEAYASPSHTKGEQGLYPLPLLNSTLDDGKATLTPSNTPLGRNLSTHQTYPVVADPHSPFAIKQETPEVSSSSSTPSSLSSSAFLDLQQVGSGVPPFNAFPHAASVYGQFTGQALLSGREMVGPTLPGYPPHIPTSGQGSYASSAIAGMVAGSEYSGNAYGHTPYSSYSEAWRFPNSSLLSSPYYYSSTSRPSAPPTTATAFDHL

[16] = toxicity toward HepG2 liver cells – cell-based, plate reader, cherry-pick, antagonist series, cytotoxicity control, dose response (AID 743416); type: functional
[17] = viability loss in HEK293 cells – cell-based, plate reader, cherry-picked samples, cytotoxicity control, dose response (AID 743446); type: functional
[18] = blockade of melanocortin 4 receptor signaling – cell-based, plate reader, cherry pick, counter-screen for LGR2 antagonist project, dose response (AID 743444); type: functional;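 note: transfected HEK 293 cells stimulated with alpha-MSH peptide; potency of inhibitors of the alpha-MSH evoked signal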
[19] = blockers of bursicon-stimulated LGR2 cAMP reporter – cell-based, HEK293, CRE-luciferase reporter, cherry pick, set 2, dose response (AID 743343); type: functional;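 note: transfected cells were stimulated with diluted bursicon conditioned medium after compound addition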
[20] = A549 cell cytotoxicity, dose response, cytotoxicity control, plate reader, cherry-pick, antagonist series (AID 743412); type: functional, cell-based
HEK293 [21] = assay: NOD2 signaling inhibitors in MDP-stimulated cells, cell-based, uHTS, luminescence (AID 2001); type: functional; conditions: Homo sapiens
HEK293 [22] = assay: cells; type: functional, cell-based; conditions: Homo sapiens
HEK293 [23] = assay: inhibition of NOD1-driven NF-kB reporter – cell-based, luminescence, uHTS, primary screen (AID 1578); type: functional; conditions: Homo sapiens
HEK293 [24] = assay: cells; type: functional, cell-based; conditions: Homo sapiens; remark: listed apart in the source

With `Cc1ccc(CNC(=O)Cn2cccc2C(=O)c2ccccc2)cc1` the EC50 [1] was 3.77 µM (active).

For `Cc1c(NC(=O)c2cc(CC(C)C)on2)c(=O)n(-c2ccccc2)n1C`, the IC50 [2] was > 64 µM (inactive).

In the case of `CCSc1nc2cc(S(=O)(=O)N3CCOCC3)ccc2o1`, the IC50 [3] is reported as > 80 µM (inactive).

For `Nc1cc(Nc2ccc(Br)cc2)nc(N)n1`, the IC50 [4] was > 66 µM (inactive), the EC50 [5] was 17.4 µM (active) and the EC50 (H4) was 11.3 µM (active). For the same compound, the IC50 [6] was 55.4 µM (inactive) and the EC50 [7] was > 120 µM (not active).

With `[O-][N+](=Cc1ccccc1)c1ccc(Cl)cc1` the IC50 [3] was 57 µM (inactive).

In the case of `COc1ccc(NC(=S)NC2CCS(=O)(=O)C2)cc1` (configuration not stated), the IC50 [2] is reported as > 64 µM (inactive).

With `O=C(O)CCCN1C(=O)C(O)=C(C(=O)c2ccc(Cl)cc2)C1c1ccccc1` (configuration not stated) the IC50 [4] was > 66 µM (inactive) and the IC50 [6] was > 66 µM (inactive).

For `COc1ccc(N2CCN(C(=O)CCNC(=O)Cn3ccc4ccccc4c3=O)CC2)cc1`, the IC50 [2] was 50 µM (inactive) and the AC50 [8] was 8.16 µM (active).

In the case of `CCN(CC)CC[n+]1ccc2c(C)c3[nH]c4ccccc4c3c(C)c2c1`, the GI50 (P388/ADR) is reported as 19.1 µM (inactive), the GI50 (SN12K1) is reported as 0.124 µM (active) and the AC50 (Cytochrome P450 2D6) is reported as 3.16 µM (inconclusive).

For `COc1ccccc1N(C(=O)c1snc(C(N)=O)c1N)C(C(=O)NCc1ccccc1)c1ccc(O)cc1` (configuration not stated), the IC50 [9] was 50 µM (inactive).

For `COc1ccc(CN(C)CCCn2ccc(NC(=O)OCc3ccccc3)nc2=O)cc1OC`, the IC50 [9] was 23.5 µM (inactive).

For `Oc1nncc(N/N=C/C=C/c2ccccc2)n1`, the AC50 (HEK293 [10]) was 7.38 µM (active), the IC50 [11] was > 47.1 µM (inactive) and the EC50 [12] was > 53 µM (inactive).

With `CCOC(=O)c1cc(Cl)ccc1OC(N)=O` the GI50 (SN12K1) was > 100 µM (inactive).

In the case of `Cc1ccc(S(=O)(=O)N(C)C[C@@H]2Oc3ncc(-c4cc5ccccc5o4)cc3C(=O)N([C@H](C)CO)C[C@@H]2C)cc1`, the AC50 [13] is reported as 17.3 µM (active) and the AC50 [14] is reported as 36.2 µM (active).

For `Cc1ccc(S(=O)(=O)Nc2ccc3c(c2)C(=O)N([C@@H](C)CO)C[C@H](C)[C@@H](CN(C)Cc2ccc(Cl)c(Cl)c2)OCCCC[C@@H](C)O3)cc1`, the AC50 [15] was > 70 µM (inactive) and the AC50 (Paired box protein Pax-8) was 5.22 µM (active).

With `C=C1CC2CC[C@@]34C[C@H]5O[C@@H]6C(O[C@H]7CC[C@H](CC(=O)OC8[C@H](C)C9OC%10C[C@]%11(C[C@@H]%12O[C@]%13(C[C@H](C)[C@@H]%14O[C@H]([C@H](O)C[C@H](O)CO)C[C@@H]%14O%13)C[C@H](C)[C@@H]%12O%11)OC%10CC9O[C@H]8C[C@H]8O[C@H](CC[C@@H]1O2)C[C@@H](C)C8=C)O[C@H]7[C@@H]6O3)[C@@H]5O4` (some centres not stated) the GI50 (P388/ADR; Mus musculus, P388/ADR) was 0.000255 µM (active).

In the case of `OC(c1ccccc1)(c1ccccc1)C1CCN(CCCOc2ccc(C(F)(F)F)cc2)CC1`, the AC50 [16] is reported as 10.7 µM (active), the AC50 [17] is reported as 16.6 µM (active) and the AC50 [18] is reported as 11.6 µM (active). The AC50 [19] was 18.8 µM (active) and the AC50 [20] was 9.23 µM (active).

For `COC(=O)c1scc(C#N)c1N/N=C(\C#N)S(=O)(=O)c1ccc(Cl)cc1`, the IC50 (HEK293 [21]) was 18.8 µM (inactive), the IC50 (HEK293 [22]) was > 20 µM (inactive) and the EC50 (HEK293 [23]) was 6.08 µM (active). For the same compound, the IC50 (HEK293 [24]) was > 20 µM (inactive).
